According to patent US7592345B2, “Piperazine and [1,4]diazepan derivatives as NK antagonists” (Hoffmann-La Roche Inc., priority 2007, dated 2009):

biological target: T1, recombinant human NK3 receptor (Homo sapiens, UniProt P29371); assay: [3H]SR142801 competition binding assay; conditions: [3H]SR142801, membranes from HEK293 cells transiently expressing recombinant human NK3 receptor; read-out: hNK3 Ki
T1 construct: expressed in transfected cells; host or cells: HEK293 cells (transient expression), membranes
T1 sequence (P29371 1-465): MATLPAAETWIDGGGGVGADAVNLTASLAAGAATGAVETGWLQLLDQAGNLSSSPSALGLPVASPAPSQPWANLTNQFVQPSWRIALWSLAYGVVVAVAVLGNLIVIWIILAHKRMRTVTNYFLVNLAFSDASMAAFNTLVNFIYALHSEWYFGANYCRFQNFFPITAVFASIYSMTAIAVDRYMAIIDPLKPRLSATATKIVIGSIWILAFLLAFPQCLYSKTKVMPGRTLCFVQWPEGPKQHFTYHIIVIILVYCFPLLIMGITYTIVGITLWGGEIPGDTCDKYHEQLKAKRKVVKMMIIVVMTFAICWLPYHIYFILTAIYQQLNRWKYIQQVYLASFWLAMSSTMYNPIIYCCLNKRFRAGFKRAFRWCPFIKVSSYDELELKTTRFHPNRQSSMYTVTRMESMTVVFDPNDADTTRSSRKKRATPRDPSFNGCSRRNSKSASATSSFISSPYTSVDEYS
Procedure, shortened: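 Membranes from HEK293 cells transiently expressing human NK3 were incubated 75 min at RT with [3H]SR142801 at its KD and inhibitor (0.0003-10 μM) in Tris-HCl pH 7.4/MnCl2/phosphoramidon/BSA. Nonspecific binding used 10 μM SB222200. Ki from Hill-fitted IC50 via Cheng-Prusoff, duplicate determinations.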

Ki [nM] | SMILES
99.9 | C[C@@H]1CN(CCC(C)(C(=O)NCc2cccc(OC(F)F)c2)c2ccc(Cl)c(Cl)c2)CCN1S(C)(=O)=O (stereo partly drawn) [Example 43, 2-(3,4-Dichloro-phenyl)-N-(3-difluoromethoxy-benzyl)-4-((R)-4-methanesulfonyl-3-methyl-piperazin-1-yl)-2-methyl-butyramide]
45.2 | C[C@H]1CN(CCC(C)(C(=O)NCc2ccc(Cl)c(C(F)(F)F)c2)c2ccc(Cl)c(Cl)c2)CCN1S(C)(=O)=O (stereo partly drawn) [Example 84, N-(4-Chloro-3-trifluoromethyl-benzyl)-2-(3,4-dichloro-phenyl)-4-((S)-4-methanesulfonyl-3-methyl-piperazin-1-yl)-2-methyl-butyramide]
48.1 | C[C@@H]1CN(CCC(C)(C(=O)NCc2cc(C(F)(F)F)cc(C(F)(F)F)c2)c2ccc(Cl)c(Cl)c2)CCN1S(C)(=O)=O (stereo partly drawn) [Example 34, N-(3,5-Bis-trifluoromethyl-benzyl)-2-(3,4-dichloro-phenyl)-4-((R)-4-methanesulfonyl-3-methyl-piperazin-1-yl)-2-methyl-butyramide]
190 | CC(CCN1CCN(S(C)(=O)=O)CC1)(C(=O)NCc1cccc(OC(F)(F)F)c1)c1ccc(Cl)c(Cl)c1 (stereo not drawn) [Example 9, 2-(3,4-Dichloro-phenyl)-4-(4-methanesulfonyl-piperazin-1-yl)-2-methyl-N-(3-trifluoromethoxy-benzyl)-butyramide]
311 | C[C@H]1CN(CCC(C)(C(=O)NCc2cc(C(F)(F)F)ccc2F)c2ccc(Cl)c(Cl)c2)CCN1S(C)(=O)=O (stereo partly drawn) [Example 76, 2-(3,4-Dichloro-phenyl)-N-(2-fluoro-5-trifluoromethyl-benzyl)-4-((S)-4-methanesulfonyl-3-methyl-piperazin-1-yl)-2-methyl-butyramide]
326 | CC(CCN1CCN(S(C)(=O)=O)CC1)(C(=O)NCc1ccc(OC(F)F)cc1)c1ccc(Cl)c(Cl)c1 (stereo not drawn) [Example 13, 2-(3,4-Dichloro-phenyl)-N-(4-difluoromethoxy-benzyl)-4-(4-methanesulfonyl-piperazin-1-yl)-2-methyl-butyramide]
5.7 | C[C@@H]1CN(CCC(C)(C(=O)NCc2ccc(Cl)c(Cl)c2)c2ccc(Cl)c(Cl)c2)CCN1S(C)(=O)=O (stereo partly drawn) [Example 42, N-(3,4-Dichloro-benzyl)-2-(3,4-dichloro-phenyl)-4-((R)-4-methanesulfonyl-3-methyl-piperazin-1-yl)-2-methyl-butyramide]
52 | C[C@H]1CN(CCC(C)(C(=O)N(C)Cc2cccc(C(F)(F)F)c2)c2ccc(Cl)c(Cl)c2)CCN1S(C)(=O)=O (stereo partly drawn) [Example 87, 2-(3,4-Dichloro-phenyl)-4-((S)-4-methanesulfonyl-3-methyl-piperazin-1-yl)-2,N-dimethyl-N-(3-trifluoromethyl-benzyl)-butyramide]
545 | C[C@@H]1CN(CCC(C)(C(=O)NCc2ccc3nccnc3c2)c2ccc(Cl)c(Cl)c2)CCN1S(C)(=O)=O (stereo partly drawn) [Example 38, 2-(3,4-Dichloro-phenyl)-4-((R)-4-methanesulfonyl-3-methyl-piperazin-1-yl)-2-methyl-N-quinoxalin-6-ylmethyl-butyramide]
123 | CC(CCN1CCCN(S(C)(=O)=O)CC1)(C(=O)NCc1cccc(OC(F)(F)F)c1)c1ccc(Cl)c(Cl)c1 (stereo not drawn) [Example 102, 2-(3,4-Dichloro-phenyl)-4-(4-methanesulfonyl-[1,4]diazepan-1-yl)-2-methyl-N-(3-trifluoromethoxy-benzyl)-butyramide]
496 | C[C@H]1CN(CCC(C)(C(=O)NCc2cc(F)ccc2C(F)(F)F)c2ccc(Cl)c(Cl)c2)CCN1S(C)(=O)=O (stereo partly drawn) [Example 74, 2-(3,4-Dichloro-phenyl)-N-(5-fluoro-2-trifluoromethyl-benzyl)-4-((S)-4-methanesulfonyl-3-methyl-piperazin-1-yl)-2-methyl-butyramide]
22.8 | C[C@@H]1CN(CCC(C)(C(=O)NCc2ccc(OC(F)(F)F)cc2)c2ccc(Cl)c(Cl)c2)CCN1S(C)(=O)=O (stereo partly drawn) [Example 53, 2-(3,4-Dichloro-phenyl)-4-((R)-4-methanesulfonyl-3-methyl-piperazin-1-yl)-2-methyl-N-(4-trifluoromethoxy-benzyl)-butyramide]

Second part, the molecule before the results:

SMILES | Ki [nM]
COc1cc(CN(C)C(=O)C(C)(CCN2CCN(S(C)(=O)=O)CC2)c2ccc(Cl)c(Cl)c2)ccc1OC(F)F (stereo not drawn) [Example 26, 2-(3,4-Dichloro-phenyl)-N-(4-difluoromethoxy-3-methoxy-benzyl)-4-(4-methanesulfonyl-piperazin-1-yl)-2,N-dimethyl-butyramide] | 275
CC(CCN1CCN(S(C)(=O)=O)CC1)(C(=O)NCc1ccccc1OC(F)(F)F)c1ccc(Cl)c(Cl)c1 (stereo not drawn) [Example 19, 2-(3,4-Dichloro-phenyl)-4-(4-methanesulfonyl-piperazin-1-yl)-2-methyl-N-(2-trifluoromethoxy-benzyl)-butyramide] | 429
CC(CCN1CCN2C(CCS2(=O)=O)C1)(C(=O)N[C@@H](CO)c1ccc(F)cc1)c1ccc(Cl)c(Cl)c1 (stereo partly drawn) [Example 137, 2-(3,4-Dichloro-phenyl)-4-(1,1-dioxo-hexahydro-1λ^6-thia-5,7a-diaza-inden-5-yl)-N-[(R)-1-(4-fluoro-phenyl)-2-hydroxy-ethyl]-2-methyl-butyramide] | 30.5
CN(Cc1cccc(Cl)c1)C(=O)C(C)(CCN1CCN(S(C)(=O)=O)CC1)c1ccc(Cl)c(Cl)c1 (stereo not drawn) [Example 10, N-(3-Chloro-benzyl)-2-(3,4-dichloro-phenyl)-4-(4-methanesulfonyl-piperazin-1-yl)-2,N-dimethyl-butyramide] | 145
CN(Cc1cccc(C(F)(F)F)c1)C(=O)C(C)(CCN1CCCN(S(C)(=O)=O)CC1)c1ccc(Cl)c(Cl)c1 (stereo not drawn) [Example 101, 2-(3,4-Dichloro-phenyl)-4-(4-methanesulfonyl-[1,4]diazepan-1-yl)-2,N-dimethyl-N-(3-trifluoromethyl-benzyl)-butyramide] | 18.4
CN(Cc1cccc(F)c1)C(=O)C(C)(CCN1CCCN(S(C)(=O)=O)CC1)c1ccc(Cl)c(Cl)c1 (stereo not drawn) [Example 100, 2-(3,4-Dichloro-phenyl)-N-(3-fluoro-benzyl)-4-(4-methanesulfonyl-[1,4]diazepan-1-yl)-2,N-dimethyl-butyramide] | 96.5
CN(Cc1ccc(-c2ccncc2)cc1)C(=O)C(C)(CCN1CCN(S(C)(=O)=O)CC1)c1ccc(Cl)c(Cl)c1 (stereo not drawn) [Example 23, 2-(3,4-Dichloro-phenyl)-4-(4-methanesulfonyl-piperazin-1-yl)-2,N-dimethyl-N-(4-pyridin-4-yl-benzyl)-butyramide] | 201
CC(CCN1CCCN(S(C)(=O)=O)CC1)(C(=O)NCc1cc(F)ccc1C(F)(F)F)c1ccc(Cl)c(Cl)c1 (stereo not drawn) [Example 116, 2-(3,4-Dichloro-phenyl)-N-(5-fluoro-2-trifluoromethyl-benzyl)-4-(4-methanesulfonyl-[1,4]diazepan-1-yl)-2-methyl-butyramide] | 575
C[C@@H]1CN(CCC(C)(C(=O)N(C)Cc2ccc(F)c(C(F)(F)F)c2)c2ccc(Cl)c(Cl)c2)CCN1S(C)(=O)=O (stereo partly drawn) [Example 33, 2-(3,4-Dichloro-phenyl)-N-(4-fluoro-3-trifluoromethyl-benzyl)-4-((R)-4-methanesulfonyl-3-methyl-piperazin-1-yl)-2,N-dimethyl-butyramide] | 15.8
COc1ccc(CN(C)C(=O)C(CCN2CCN(S(C)(=O)=O)CC2)c2ccc(Cl)c(Cl)c2)cc1F (stereo not drawn) [Example 6, 2-(3,4-Dichloro-phenyl)-N-(3-fluoro-4-methoxy-benzyl)-4-(4-methanesulfonyl-piperazin-1-yl)-N-methyl-butyramide] | 690
CC(NC(=O)C(C)(CCN1CCCN(S(C)(=O)=O)CC1)c1ccc(Cl)c(Cl)c1)c1ccc(Cl)cc1 (stereo not drawn) [Example 119, N-[1-(4-Chloro-phenyl)-ethyl]-2-(3,4-dichloro-phenyl)-4-(4-methanesulfonyl-[1,4]diazepan-1-yl)-2-methyl-butyramide] | 121
COc1ccc(C(NC(=O)C(C)(CCN2CCN(S(C)(=O)=O)[C@H](C)C2)c2ccc(Cl)c(Cl)c2)C2CC2)cc1 (stereo partly drawn) [Example 32, N-[Cyclopropyl-(4-methoxy-phenyl)-methyl]-2-(3,4-dichloro-phenyl)-4-((R)-4-methanesulfonyl-3-methyl-piperazin-1-yl)-2-methyl-butyramide] | 16.8
CC(CCN1CCCN(S(C)(=O)=O)CC1)(C(=O)NCc1ccc(C#N)cc1)c1ccc(Cl)c(Cl)c1 (stereo not drawn) [Example 124, N-(4-Cyano-benzyl)-2-(3,4-dichloro-phenyl)-4-(4-methanesulfonyl-[1,4]diazepan-1-yl)-2-methyl-butyramide] | 107
CN(Cc1cccc(F)c1)C(=O)C(C)(CCN1CCN(S(C)(=O)=O)CC1)c1ccc(Cl)c(Cl)c1 (stereo not drawn) [Example 24, 2-(3,4-Dichloro-phenyl)-N-(3-fluoro-benzyl)-4-(4-methanesulfonyl-piperazin-1-yl)-2,N-dimethyl-butyramide] | 224
CC(CCN1CCCN(S(C)(=O)=O)CC1)(C(=O)NCc1ccc(Cl)c(F)c1)c1ccc(Cl)c(Cl)c1 (stereo not drawn) [Example 98, N-(4-Chloro-3-fluoro-benzyl)-2-(3,4-dichloro-phenyl)-4-(4-methanesulfonyl-[1,4]diazepan-1-yl)-2-methyl-butyramide] | 66
